Results taken from patent US10112941B2, “Tricyclic compounds as anticancer agents” (BRISTOL-MYERS SQUIBB COMPANY, priority 2013, dated 2018).

The compounds below were run against BRD4 (Homo sapiens, UniProt O60885) (assay: Time Resolved Fluorescence Resonance Energy Transfer (TR-FRET) binding assay, BRD4). Conditions: one of the FRET assays described; read-out: FRET BRD4 IC50.

Compound	IC50 [nM]
Cc1nnn(C)c1-c1cnc2c3cc(Cl)c(C(C)(C)O)cc3n([C@H](c3ccccc3)C3CCOCC3)c2c1 [Example 409, 2-[8-Chloro-3-(dimethyl-1H-1,2,3-triazol-5-yl)-5-[(S)-oxan-4-yl(phenyl)methyl]-5H-pyrido[3,2-b]indol-7-yl]propan-2-ol]	< 5
Cc1nnn(C)c1-c1cnc2c3ccc(C(C)(C)NS(C)(=O)=O)cc3n([C@H](c3ccccc3)C3CCOCC3)c2c1 [Example 411, N-{2-[3-(Dimethyl-1H-1,2,3-triazol-5-yl)-5-[(S)-oxan-4-yl(phenyl)methyl]-5H-pyrido[3,2-b]indol-7-yl]propan-2-yl}methanesulfonamide]	< 5
COC(=O)NC(C)(C)c1ccc2c3ncc(-c4c(C)nnn4C)cc3n([C@H](c3ccccc3)C3CCOCC3)c2c1 [Example 412, Methyl N-{2-[3-(dimethyl-1H-1,2,3-triazol-5-yl)-5-[(S)-oxan-4-yl(phenyl)methyl]-5H-pyrido[3,2-b]indol-7-yl]propan-2-yl}carbamate]	< 5
Cc1nnn(C)c1-c1cnc2c3ccc(C(=O)N4CC(F)C4)cc3n([C@H](c3ccccc3)C3CCOCC3)c2c1 [Example 413, 5-[7-(3-Fluoroazetidine-1-carbonyl)-5-[(S)-oxan-4-yl(phenyl)methyl]-5H-pyrido[3,2-b]indol-3-yl]-1,4-dimethyl-1H-1,2,3-triazole]	< 5
Cc1nnn(C)c1-c1cnc2c3ccc(C(=O)N4CC(F)(F)C4)cc3n([C@H](c3ccccc3)C3CCOCC3)c2c1 [Example 414, 5-[7-(3,3-Difluoroazetidine-1-carbonyl)-5-[(S)-oxan-4-yl(phenyl)methyl]-5H-pyrido[3,2-b]indol-3-yl]-1,4-dimethyl-1H-1,2,3-triazole]	< 5
Cc1nnn(C)c1-c1cnc2c3ccc(C(C)(O)C4CC4)c(F)c3n([C@H](c3ccccc3)C3CCOCC3)c2c1 (stereo partly drawn) [Example 415, 1-Cyclopropyl-1-{6-fluoro-3-[4-(^2H3)methyl-1-methyl-1H-1,2,3-triazol-5-yl]-5-[(S)-oxan-4-yl(phenyl)methyl]-5H-pyrido[3,2-b]indol-7-yl}ethan-1-ol]	< 5
Cc1nnn(C)c1-c1cnc2c3ccc(C(C)(O)C4CC4)c(F)c3n([C@H](c3ccccc3)C3CCOCC3)c2c1 (stereo partly drawn) [Example 416, 1-Cyclopropyl-1-{6-fluoro-3-[4-(^2H3)methyl-1-methyl-1H-1,2,3-triazol-5-yl]-5-[(S)-oxan-4-yl(phenyl)methyl]-5H-pyrido[3,2-b]indol-7-yl}ethan-1-ol]	< 5
Cc1cnn(C)c1-c1cnc2c3ccc(S(C)(=O)=O)cc3n([C@H](c3ccccc3)C3CCOCC3)c2c1 [Example 417, 5-{7-Methanesulfonyl-5-[(S)-oxan-4-yl(phenyl)methyl]-5H-pyrido[3,2-b]indol-3-yl}-1,4-dimethyl-1H-pyrazole]	< 5
Cn1nccc1-c1cnc2c3ccc(S(C)(=O)=O)cc3n([C@H](c3ccccc3)C3CCOCC3)c2c1 [Example 418, 5-{7-Methanesulfonyl-5-[(S)-oxan-4-yl(phenyl)methyl]-5H-pyrido[3,2-b]indol-3-yl}-1-methyl-1H-pyrazole]	< 25
Cc1nnn(C)c1-c1cnc2c3ccc(C4(O)CC4)cc3n([C@H](c3ccccc3)C3CCOCC3)c2c1 [Example 419, 1-[3-(Dimethyl-1H-1,2,3-triazol-5-yl)-5-[(S)-oxan-4-yl(phenyl)methyl]-5H-pyrido[3,2-b]indol-7-yl]cyclopropan-1-ol]	< 5
C=C(C)c1ccc2c3ncc(-c4c(C)nnn4C)cc3n([C@H](c3ccccc3)C3CCOCC3)c2c1 [Example 420, 1,4-Dimethyl-5-{5-[(S)-oxan-4-yl(phenyl)methyl]-7-(prop-1-en-2-yl)-5H-pyrido[3,2-b]indol-3-yl}-1H-1,2,3-triazole]	< 5
CC(=O)c1ccc2c3ncc(-c4c(C)nnn4C)cc3n([C@H](c3ccccc3)C3CCOCC3)c2c1 [Example 421, 1-[3-(Dimethyl-1H-1,2,3-triazol-5-yl)-5-[(S)-oxan-4-yl(phenyl)methyl]-5H-pyrido[3,2-b]indol-7-yl]ethan-1-one]	< 5
